Test system: Plasmodium falciparum 3D7
Assay: P. falciparum 3D7 asexual blood stage assay, Assay Procedure Version 2 (SYBR green readout)
Format: cell-based
Conditions: Plasmodium falciparum, 3D7, Erythrocyte, 72 h, Version 2 of the assay procedure (asterisk *); 72 h incubation in infected erythrocytes; 50,000 nM to 15 nM
Experimental: Asexual Blood Stage Assay
The assay used to measure the effect of test compounds on a bloodstream stage of Plasmodium falciparum 3D7 strain employs SYBR green as the readout. This is a dye that binds to double stranded deoxyribonucleic acid (DNA) with a resulting increase in fluorescence, allowing detection of P. falciparum DNA in infected erythrocytes, and thereby providing a measure of parasite growth and propagation.
P. falciparum Culture Maintenance
Erythrocytes (A+blood) were prepared for both parasite culture and assay by washing 4 times with incomplete media (15.9 g RPMI 1640 (25 mM HEPES, L-glutamine), 1 g NaHCO3, 2 g glucose, 400 μL gentacin (500 mg/mL), 2 mL hypoxanthine solution (13.6 g/L in 0.1M NaOH pH 7.3) in 1 litre of media). The cells were centrifuged at 1800 g for 5 minutes, before decanting the supernatant and re-suspending in fresh incomplete media. On the final wash, the cells were re-suspended in complete media (incomplete media with 5 g/L AlbumaxII), and centrifuged at 1800 g for 3 minutes. This cell sediment was treated as 100% haematocrit.
P. falciparum 3D7 was cultured in erythrocytes at 5% haematocrit in complete media at 37° C. (1% O2, 3% CO2, balance N2). Cultures were split on a weekly basis to achieve a 1% parasitaemia in erythrocites at 5% haematocrit in fresh media. Culture media is replaced by fresh media every other day (2 times during the week).
[formula] where A=% inhibition at bottom; B=% inhibition at top; C=EC50; D=slope; x=inhibitor concentration; and y=% inhibition. […] Assay Procedure—Version 2
On day 1, test compounds were added to assay plates using Echo dispensing technology ([…] and 20 points titration). 50 nL of each compound dilution was added to 50 μL of culture (5% haematocrit, 0.5% parasitaemia) and incubated for 72 h at 37° C. (1% O2, 3% CO2, balance N2). Final concentrations of test compounds ranged from 50,000 nM to 15 nM, in […].
On day 4, 10 μL SYBR green (Invitrogen S7563 supplied as 10,000× concentrate in DMSO) pre-diluted to 3× concentrate with Lysis buffer (20 mM Tris pH 7.9, 5% EDTA, 0.16% w/v, 1.6% TX100 v/v) was added to the cultures and incubated in the dark, overnight, at room temperature.
On day 5, fluorescent signal was measured using a BioTek plate reader (excitation 485 nm, emission 528 nm). All data were processed using IDBS ActivityBase. Raw data were converted into percent inhibition through linear regression by setting the high inhibition control (mefloquine) as 100% and the no inhibition control (DMSO) as 0%. Quality control criteria for passing plates were as follows: Z′>0.5, S:B>3, % CV(no inhibition control)<15. The formula used to calculate Z′ is:
[formula] where μ denotes the mean; σ denotes the standard deviation; p denotes the positive control; and n denotes the negative control.
All EC50 curve fitting was undertaken using the following bi-phasic two site dose response using XLfit model 300 (IDBS):
[formula] where A=100 minus the top of the upper curve 1 and the bottom of lower curve; B=Hill slope; log(C)=IC50 concentration at lower site; log(D)=IC50 concentration at upper site; x=inhibitor concentration; and y=% inhibition.

SMILES	IC50 [nM]
C[C@@]1(c2cccc(Nc3cnc(C(F)(F)F)nc3)c2Cl)CC(=O)N(C2CCOCC2)C(=N)N1 [Example 52, (6S)-6-(2-Chloro-3-{[2-(trifluoromethyl)pyrimidin-5-yl]amino}phenyl)-2-imino-6-methyl-3-(tetrahydropyran-4-yl)hexahydropyrimidin-4-one]	680
C[C@@]1(c2cccc(Nc3ccccc3OC(F)(F)F)c2Cl)CC(=O)N(C2CCOCC2)C(=N)N1 [Example 53, (6S)-6-{2-Chloro-3-[2-(trifluoromethoxy)anilino]-phenyl}-2-imino-6-methyl-3-(tetrahydropyran-4-yl)-hexahydropyrimidin-4-one]	212
COc1ccncc1Nc1cccc([C@]2(C)CC(=O)N(C3CCOCC3)C(=N)N2)c1Cl [Example 54, (6S)-6-{2-Chloro-3-[(4-methoxypyridin-3-yl)amino]-phenyl}-2-imino-6-methyl-3-(tetrahydropyran-4-yl)-hexahydropyrimidin-4-one]	655
COc1nc(C)ccc1Nc1cccc([C@]2(C)CC(=O)N(C3CCOCC3)C(=N)N2)c1Cl [Example 55, (6S)-6-{2-Chloro-3-[(2-methoxy-6-methylpyridin-3-yl)-amino]phenyl}-2-imino-6-methyl-3-(tetrahydropyran-4-yl)hexahydropyrimidin-4-one]	433
C[C@@]1(c2cccc(Nc3cnccc3C(F)(F)F)c2Cl)CC(=O)N(C2CCOCC2)C(=N)N1 [Example 56, (6S)-6-(2-Chloro-3-{[4-(trifluoromethyl)pyridin-3-yl]-amino}phenyl)-2-imino-6-methyl-3-(tetrahydropyran-4-yl)hexahydropyrimidin-4-one]	253
C[C@@]1(c2cccc(Nc3cccc4ccccc34)c2Cl)CC(=O)N(C2CCOCC2)C(=N)N1 [Example 57, (6S)-6-[2-Chloro-3-(1-naphthyl-amino)phenyl]-2-imino-6-methyl-3-(tetrahydropyran-4-yl)hexahydropyrimidin-4-one]	600
C[C@@]1(c2cccc(Nc3cccc(-c4ccccc4)c3)c2Cl)CC(=O)N(C2CCOCC2)C(=N)N1 [Example 58, (6S)-6-[2-Chloro-3-(3-phenyl-anilino)phenyl]-2-imino-6-methyl-3-(tetrahydropyran-4-yl)hexahydropyrimidin-4-one]	1630
C[C@@]1(c2cccc(Nc3ccc4c(c3)OCO4)c2Cl)CC(=O)N(C2CCOCC2)C(=N)N1 [Example 59, (6S)-6-[3-(1,3-Benzodioxol-5-ylamino)-2-chlorophenyl]-2-imino-6-methyl-3-(tetrahydro-pyran-4-yl)hexahydropyrimidin-4-one]	365
C[C@@]1(c2cccc(Nc3ccc(Cl)nc3)c2Cl)CC(=O)N(C2CCOCC2)C(=N)N1 [Example 60, (6S)-6-{2-Chloro-3-[(6-chloro-pyridin-3-yl)amino]phenyl}-2-imino-6-methyl-3-(tetrahydro-pyran-4-yl)hexahydropyrimidin-4-one]	269
C[C@@]1(c2cccc(Nc3cccc(-c4ccno4)c3)c2Cl)CC(=O)N(C2CCOCC2)C(=N)N1 [Example 61, (6S)-6-{2-Chloro-3-[3-(isoxazol-5-yl)anilino]phenyl}-2-imino-6-methyl-3-(tetrahydro-pyran-4-yl)hexahydropyrimidin-4-one]	753
CC(C)(C)c1ncc(Nc2cccc([C@]3(C)CC(=O)N(C4CCOCC4)C(=N)N3)c2Cl)cn1 [Example 62, (6S)-6-{3-[(2-tert-Butyl-pyrimidin-5-yl)amino]-2-chloro-phenyl}-2-imino-6-methyl-3-(tetrahydropyran-4-yl)-hexahydropyrimidin-4-one]	226
C[C@@]1(c2cccc(Nc3cccc(OC(F)F)c3)c2Cl)CC(=O)N(C2CCOCC2)C(=N)N1 [Example 63, (6S)-6-{2-Chloro-3-[3-(difluoro-methoxy)anilino]phenyl}-2-imino-6-methyl-3-(tetrahydro-pyran-4-yl)hexahydropyrimidin-4-one]	916
C[C@@]1(c2cccc(Nc3ccc(OC(F)(F)F)cc3)c2Cl)CC(=O)N(C2CCOCC2)C(=N)N1 [Example 64, (6S)-6-{2-Chloro-3-[4-(trifluoromethoxy)anilino]-phenyl}-2-imino-6-methyl-3-(tetrahydropyran-4-yl)-hexahydropyrimidin-4-one]	1760
CC(=O)N1CCc2cc(Nc3cccc([C@]4(C)CC(=O)N(C5CCOCC5)C(=N)N4)c3Cl)ccc21 [Example 65, (6S)-6-{3-[(1-Acetylindolin-5-yl)amino]-2-chlorophenyl}-2-imino-6-methyl-3-(tetrahydro-pyran-4-yl)hexahydropyrimidin-4-one]	458
C[C@@]1(c2cccc(Nc3ccccc3OC(F)F)c2Cl)CC(=O)N(C2CCOCC2)C(=N)N1 [Example 66, (6S)-6-{2-Chloro-3-[2-(difluoro-methoxy)anilino]phenyl}-2-imino-6-methyl-3-(tetrahydro-pyran-4-yl)hexahydropyrimidin-4-one]	217
CC(C)(C)c1ccc(Nc2cccc([C@]3(C)CC(=O)N(C4CCOCC4)C(=N)N3)c2Cl)cc1 [Example 67, (6S)-6-[3-(4-tert-Butylanilino)-2-chlorophenyl]-2-imino-6-methyl-3-(tetrahydropyran-4-yl)hexahydropyrimidin-4-one]	2580
C[C@@]1(c2cccc(Nc3cccc4c3OC(F)(F)O4)c2Cl)CC(=O)N(C2CCOCC2)C(=N)N1 [Example 68, (6S)-6-{2-Chloro-3-[(2,2-difluoro-1,3-benzodioxol-4-yl)amino]phenyl}-2-imino-6-methyl-3-tetrahydropyran-4-yl-hexahydropyrimidin-4-one]	524
Cc1cccc(C)c1Nc1cccc([C@]2(C)CC(=O)N(C3CCOCC3)C(=N)N2)c1Cl [Example 69, (6S)-6-[2-Chloro-3-(2,6-dimethylanilino)phenyl]-2-imino-6-methyl-3-(tetrahydro-pyran-4-yl)hexahydropyrimidin-4-one]	579
C[C@@]1(c2cccc(Nc3cc(F)c4ccnn4c3)c2Cl)CC(=O)N(C2CCOCC2)C(=N)N1 [Example 70, (6S)-6-{2-Chloro-3-[(4-fluoro-pyrazolo[1,5-a]pyridin-6-yl)-amino]phenyl}-2-imino-6-methyl-3-(tetrahydropyran-4-yl)hexahydropyrimidin-4-one]	478
C[C@@]1(c2cccc(Nc3ccc(-c4ccccc4)cc3)c2Cl)CC(=O)N(C2CCOCC2)C(=N)N1 [Example 71, (6S)-6-[2-Chloro-3-(4-phenyl-anilino)phenyl]-2-imino-6-methyl-3-(tetrahydropyran-4-yl)hexahydropyrimidin-4-one]	3530
CN(C)c1ccc(Nc2cccc([C@]3(C)CC(=O)N(C4CCOCC4)C(=N)N3)c2Cl)cn1 [Example 72, (6S)-6-(2-Chloro-3-{[6-(dimethylamino)pyridin-3-yl]-amino}phenyl)-2-imino-6-methyl-3-(tetrahydropyran-4-yl)hexahydropyrimidin-4-one]	325
Cn1ccc(Nc2cccc([C@]3(C)CC(=O)N(C4CCOCC4)C(=N)N3)c2Cl)cc1=O [Example 73, (6S)-6-{2-Chloro-3-[(1-methyl-2-oxopyridin-4-yl)amino]-phenyl}-2-imino-6-methyl-3-(tetrahydropyran-4-yl)-hexahydropyrimidin-4-one]	10400
CC(C)Oc1cccc(Nc2cccc([C@]3(C)CC(=O)N(C4CCOCC4)C(=N)N3)c2Cl)c1 [Example 74, (6S)-6-[2-Chloro-3-(3-isopropoxyanilino)phenyl]-2-imino-6-methyl-3-(tetrahydro-pyran-4-yl)hexahydropyrimidin-4-one]	1290
C[C@@]1(c2cccc(Nc3cccc(Oc4ccccc4)c3)c2Cl)CC(=O)N(C2CCOCC2)C(=N)N1 [Example 75, (6S)-6-[2-Chloro-3-(3-phenoxy-anilino)phenyl]-2-imino-6-methyl-3-(tetrahydropyran-4-yl)hexahydropyrimidin-4-one]	1460
